US11746100B2 (GLOBAL BLOOD THERAPEUTICS, INC., priority 2020, dated 2023)

The compounds below were run against T1, human ferroportin (Homo sapiens, UniProt Q9NP59) (assay: Biological in-vitro ferroportin internalization assay (luciferase reporter)). Conditions: average pEC50; stably-transfected CHO cell line expressing human ferroportin tagged to a luciferase reporter; 6 h incubation with test compound.
T1 construct: luciferase reporter (read with the Nano-Glo Luciferase Assay System); expressed in transfected cells; host or cells: CHO cells, stably transfected, expression induced with doxycycline
T1 sequence (Q9NP59 1-571): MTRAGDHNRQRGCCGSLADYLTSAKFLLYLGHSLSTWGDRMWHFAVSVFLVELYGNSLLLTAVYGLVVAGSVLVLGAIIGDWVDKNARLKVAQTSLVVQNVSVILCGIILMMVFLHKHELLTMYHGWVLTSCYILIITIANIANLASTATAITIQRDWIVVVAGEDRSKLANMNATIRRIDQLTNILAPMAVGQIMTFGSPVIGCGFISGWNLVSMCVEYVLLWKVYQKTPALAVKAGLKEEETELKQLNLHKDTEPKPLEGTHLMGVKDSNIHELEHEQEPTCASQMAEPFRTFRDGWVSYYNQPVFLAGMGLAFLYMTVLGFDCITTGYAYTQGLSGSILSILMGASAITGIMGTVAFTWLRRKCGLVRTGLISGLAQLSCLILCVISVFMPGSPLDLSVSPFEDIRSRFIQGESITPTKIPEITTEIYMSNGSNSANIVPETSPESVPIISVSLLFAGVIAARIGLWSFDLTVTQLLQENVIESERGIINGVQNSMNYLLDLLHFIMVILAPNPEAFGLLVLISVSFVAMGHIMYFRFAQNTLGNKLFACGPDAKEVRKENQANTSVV
Type: cell-based
Outline: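 Stably transfected CHO cells expressing luciferase-tagged human ferroportin, plated 24 h with ferric ammonium citrate and induced with doxycycline for 24 h. Compounds incubated 6 h, then luciferase activity measured by Nano-Glo; average pEC50 reported.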

Row | pEC50 | Structure (SMILES)
1 | 7.5 | CCNC(=O)CN(C)c1nc(-c2cc(OCC3(O)CC3)ccn2)nc2c1CCC2 [Compound 441, N-ethyl-2-[(2-{4-[(1-hydroxycyclopropyl)methoxy]pyridin-2-yl}-5H,6H,7H-cyclopenta[d]pyrimidin-4-yl)(methyl)amino]acetamide]
2 | 7.9 | CC(C)NC(=O)CN(C)c1nc(-c2cc(OCC3(O)CCOCC3)ccn2)nc2c1CCC2 [Compound 444, 2-[(2-{4-[(4-hydroxyoxan-4-yl)methoxy]pyridin-2-yl}-5H,6H,7H-cyclopenta[d]pyrimidin-4-yl)(methyl)amino]-N-(propan-2-yl)acetamide]
3 | 7.6 | CCNC(=O)CN(C)c1nc(-c2cc(OCC3(O)CCOCC3)ccn2)nc2c1CCC2 [Compound 447, N-ethyl-2-[(2-{4-[(4-hydroxyoxan-4-yl)methoxy]pyridin-2-yl}-5H,6H,7H-cyclopenta[d]pyrimidin-4-yl)(methyl)amino]acetamide]
4 | 7.4 | COC[C@@H](O)COc1ccnc(-c2nc3c(c(N(C)CC(=O)NC(C)C)n2)CCC3)c1 [Compound 448, 2-[(2-{4-[(2R)-2-hydroxy-3-methoxypropoxy]pyridin-2-yl}-5H,6H,7H-cyclopenta[d]pyrimidin-4-yl)(methyl)amino]-N-(propan-2-yl)acetamide]
5 | 7.2 | CC(C)NC(=O)CN(C)c1nc(-c2cc(OCC(C)(C)O)ccn2)nc2c1CC(C)(C)C2 [Compound 449, 2-({2-[4-(2-hydroxy-2-methylpropoxy)pyridin-2-yl]-6,6-dimethyl-5H,6H,7H-cyclopenta[d]pyrimidin-4-yl}(methyl)amino)-N-(propan-2-yl)acetamide]
6 | 6.4 | CC(C)NC(=O)CN(C)c1nc(-c2cc(OCC(C)(C)O)ccn2)nc2c1CCC2(C)C [Compound 450, 2-({2-[4-(2-hydroxy-2-methylpropoxy)pyridin-2-yl]-7,7-dimethyl-5H,6H,7H-cyclopenta[d]pyrimidin-4-yl}(methyl)amino)-N-(propan-2-yl)acetamide]
7 | 7.8 | CN(CC(=O)NC(C)(C)C)c1nc(-c2cc(OC[C@@H](O)CO)ccn2)nc2c1CCC2 [Compound 451, N-tert-butyl-2-[(2-{4-[(2S)-2,3-dihydroxypropoxy]pyridin-2-yl}-5H,6H,7H-cyclopenta[d]pyrimidin-4-yl)(methyl)amino]acetamide]
8 | 8.4 | CN(CC(=O)NC(C)(C)C)c1nc(-c2cc(OC[C@H](O)CF)ccn2)nc2c1CCC2 [Compound 452, N-tert-butyl-2-[(2-{4-[(2S)-3-fluoro-2-hydroxypropoxy]pyridin-2-yl}-5H,6H,7H-cyclopenta[d]pyrimidin-4-yl)(methyl)amino]acetamide]
9 | 8.1 | CC(C)NC(=O)[C@@H](C)N(C)c1nc(-c2cc(OCC(C)(C)O)ccn2)nc2c1CCC2 [Compound 453, (2R)-2-({2-[4-(2-hydroxy-2-methylpropoxy)pyridin-2-yl]-5H,6H,7H-cyclopenta[d]pyrimidin-4-yl}(methyl)amino)-N-(propan-2-yl)propanamide]
10 | 7.9 | CN(C)CCOc1ccnc(-c2nc3c(c(N(C)CC(=O)NC(C)(C)C)n2)CC(C)(C)C3)c1 [Compound 454, N-tert-butyl-2-[(2-{4-[2-(dimethylamino)ethoxy]pyridin-2-yl}-6,6-dimethyl-5H,6H,7H-cyclopenta[d]pyrimidin-4-yl)(methyl)amino]acetamide]
11 | 7.7 | CC(C)NC(=O)CN(C)c1nc(-c2cc(OCCN(C)C)ccn2)nc2c1CC(C)(C)C2 [Compound 455, 2-[(2-{4-[2-(dimethylamino)ethoxy]pyridin-2-yl}-6,6-dimethyl-5H,6H,7H-cyclopenta[d]pyrimidin-4-yl)(methyl)amino]-N-(propan-2-yl)acetamide]
12 | 6.2 | CC(C)NC(=O)CN(C)c1nc(-c2cc(OCCN(C)C)ccn2)nc2c1CCC2(C)C [Compound 456, 2-[(2-{4-[2-(dimethylamino)ethoxy]pyridin-2-yl}-7,7-dimethyl-5H,6H,7H-cyclopenta[d]pyrimidin-4-yl)(methyl)amino]-N-(propan-2-yl)acetamide]
13 | 6.3 | CN(C)CCOc1ccnc(-c2nc(N(C)CC(=O)NC(C)(C)C)c3c(n2)C(C)(C)CC3)c1 [Compound 457, N-tert-butyl-2-[(2-{4-[2-(dimethylamino)ethoxy]pyridin-2-yl}-7,7-dimethyl-5H,6H,7H-cyclopenta[d]pyrimidin-4-yl)(methyl)amino]acetamide]
14 | 7.3 | COc1ccnc(-c2nc3c(c(N(C)CC(=O)N[C@H](C)CO)n2)CCC3)c1 [Compound 458, N-[(2R)-1-hydroxypropan-2-yl]-2-{[2-(4-methoxypyridin-2-yl)-5H,6H,7H-cyclopenta[d]pyrimidin-4-yl](methyl)amino}acetamidede]
15 | 7.3 | COc1ccnc(-c2nc3c(c(N(C)CC(=O)N[C@@H](C)CO)n2)CCC3)c1 [Compound 459, N-[(2S)-1-hydroxypropan-2-yl]-2-{[2-(4-methoxypyridin-2-yl)-5H,6H,7H-cyclopenta[d]pyrimidin-4-yl](methyl)amino}acetamide]
16 | 8.2 | CN(CC(=O)NC(C)(C)C)c1nc(-c2cc(OCCN3CCOCC3)ccn2)nc2c1CCC2 [Compound 460, N-tert-butyl-2-[methyl(2-{4-[2-(morpholin-4-yl)ethoxy]pyridin-2-yl}-5H,6H,7H-cyclopenta[d]pyrimidin-4-yl)amino]acetamide]
17 | 8.3 | CN(CC(=O)NC(C)(C)C)c1nc(-c2cc(OCCN3C[C@@H]4C[C@H]3CO4)ccn2)nc2c1CCC2 [Compound 461, N-tert-butyl-2-{methyl[2-(4-{2-[(1S,4S)-2-oxa-5-azabicyclo[2.2.1]heptan-5-yl]ethoxy}pyridin-2-yl)-5H,6H,7H-cyclopenta[d]pyrimidin-4-yl]amino}acetamide]
18 | 8.4 | CN(CC(=O)NC(C)(C)C)c1nc(-c2cc(OCCN3C[C@H]4C[C@@H]3CO4)ccn2)nc2c1CCC2 [Compound 462, N-tert-butyl-2-{methyl[2-(4-{2-[(1R,4R)-2-oxa-5-azabicyclo[2.2.1]heptan-5-yl]ethoxy}pyridin-2-yl)-5H,6H,7H-cyclopenta[d]pyrimidin-4-yl]amino}acetamide]
19 | 8.1 | CO[C@@H]1CCN(CCOc2ccnc(-c3nc4c(c(N(C)CC(=O)NC(C)(C)C)n3)CCC4)c2)C1 [Compound 463, N-tert-butyl-2-{[2-(4-{2-[(3R)-3-methoxypyrrolidin-1-yl]ethoxy}pyridin-2-yl)-5H,6H,7H-cyclopenta[d]pyrimidin-4-yl](methyl)amino}acetamide]
20 | 8.0 | CO[C@H]1CCN(CCOc2ccnc(-c3nc4c(c(N(C)CC(=O)NC(C)(C)C)n3)CCC4)c2)C1 [Compound 464, N-tert-butyl-2-{[2-(4-{2-[(3S)-3-methoxypyrrolidin-1-yl]ethoxy}pyridin-2-yl)-5H,6H,7H-cyclopenta[d]pyrimidin-4-yl](methyl)amino}acetamide]
21 | 8.3 | CN(CC(=O)NC(C)(C)C)c1nc(-c2cc(OCCn3ccnc3)ccn2)nc2c1CCC2 [Compound 465, N-tert-butyl-2-[(2-{4-[2-(1H-imidazol-1-yl)ethoxy]pyridin-2-yl}-5H,6H,7H-cyclopenta[d]pyrimidin-4-yl)(methyl)amino]acetamide]
22 | 7.9 | CN(CC(=O)NC(C)(C)C)c1nc(-c2cc(OCCn3cnnn3)ccn2)nc2c1CCC2 [Compound 466, N-tert-butyl-2-[methyl(2-{4-[2-(1H-1,2,3,4-tetrazol-1-yl)ethoxy]pyridin-2-yl}-5H,6H,7H-cyclopenta[d]pyrimidin-4-yl)amino]acetamide]
23 | 8.3 | CCOc1ccnc(-c2nc3c(c(N(C)CC(=O)NC(C)(C)C)n2)CCC3)c1 [Compound 467, N-tert-butyl-2-{[2-(4-ethoxypyridin-2-yl)-5H,6H,7H-cyclopenta[d]pyrimidin-4-yl](methyl)amino}acetamide]
24 | 8.5 | CN(CC(=O)NC(C)(C)C)c1nc(-c2cc(OCCOc3cccnn3)ccn2)nc2c1CCC2 [Compound 468, N-tert-butyl-2-[methyl(2-{4-[2-(pyridazin-3-yloxy)ethoxy]pyridin-2-yl}-5H,6H,7H-cyclopenta[d]pyrimidin-4-yl)amino]acetamide]

Row | Structure (SMILES) | pEC50
25 | CCNC(=O)CN(C)c1nc(-c2cc(OCC(O)(CC)CC)ccn2)nc2c1CCC2 [Compound 442, N-ethyl-2-({2-[4-(2-ethyl-2-hydroxybutoxy)pyridin-2-yl]-5H,6H,7H-cyclopenta[d]pyrimidin-4-yl}(methyl)amino)acetamide] | 8
26 | CCC(O)(CC)COc1ccnc(-c2nc3c(c(N(C)CC(=O)NC)n2)CCC3)c1 [Compound 443, 2-({2-[4-(2-ethyl-2-hydroxybutoxy)pyridin-2-yl]-5H,6H,7H-cyclopenta[d]pyrimidin-4-yl}(methyl)amino)-N-methylacetamide] | 7.8
27 | CC[C@@](C)(O)COc1ccnc(-c2nc3c(c(N(C)CC(=O)NC(C)(C)C)n2)CCC3)c1 [Compound 445, N-tert-butyl-2-[(2-{4-[(2R)-2-hydroxy-2-methylbutoxy]pyridin-2-yl}-5H,6H,7H-cyclopenta[d]pyrimidin-4-yl)(methyl)amino]acetamide] | 8.3
